In US10005767B2, “Compositions and methods for inhibition of the JAK pathway” (Rigel Pharmaceuticals, Inc., priority 2009, dated 2018):
pIC50: −log10 of the molar value. Read-outs that look alike come from different tables or passages of the source.

System: human primary T-cells, IL-2 stimulated proliferation (JAK-1 and JAK-3 dependent; reported as JAK3 activity)
Assay: Human primary T-cell proliferation stimulated by IL-2 (Example 3)
Assay type: cell-based
Conditions: tested under conditions described in Example 3 (IL-2 stimulated human primary T-cell proliferation), read-out: ability to inhibit JAK3 activity, IC50 range (Table V)
Procedure, shortened: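 Peripheral-blood human T-cells pre-activated via TCR/CD28, IL-2-starved overnight, then cultured 72 h at 37 °C with compound in Yssel's medium containing IL-2 (80 U/mL in cell suspension). Proliferation read as viable-cell ATP by CellTiter-Glo luminescence; reduction versus control taken as JAK pathway inhibition.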

`Cc1cnc(Nc2ccc(N3CCC(N4CCOCC4)C3)nc2)nc1Nc1ccc2oc(=O)[nH]c2c1` (stereo not shown) [II-84, 5-(5-methyl-2-(6-(3-morpholinopyrrolidin-1-yl)pyridin-3-ylamino)pyrimidin-4-ylamino)benzo[d]oxazol-2(3H)-one] was tested, and the pIC50 (Homo sapiens, T-cell) was > 6.30.

With `Cc1cnc(Nc2ccc(NS(C)(=O)=O)cc2)nc1Nc1ccc2oc(=O)n(C(C)C)c2c1` [Compound I-10, N4-(3-isopropylbenzo[d]oxazol-2(3H)-on-5-yl)-N2-((4-methylsulfonylamino)phenyl)-5-methylpyrimidine-2,4-diamine] the pIC50 was > 6.30.

In the case of `Cc1cnc(Nc2cc(F)cc(F)c2F)nc1Nc1ccc2oc(=O)[nH]c2c1` [Compound I-480, 5-[5-Methyl-2-(2,3,5-trifluoro-phenylamino)-pyrimidin-4-ylamino]-3H-benzooxazol-2-one], the pIC50 (Homo sapiens, T-cell) was < 5.00.

In the case of `CN1CCN(c2ccc(Nc3ncc(C(F)(F)F)c(Nc4ccc5oc(=O)[nH]c5c4)n3)cn2)CC1` [II-85, 5-(2-(6-(4-methylpiperazin-1-yl)pyridin-3-ylamino)-5-(trifluoromethyl)pyrimidin-4-ylamino)benzo[d]oxazol-2(3H)-one], the pIC50 (Homo sapiens, T-cell) was > 6.30.

With `COc1c(C)cc(Nc2ncc(C)c(Nc3ccc4oc(=O)[nH]c4c3)n2)cc1Cl` [Compound I-265, 5-(2-(3-chloro-4-methoxy-5-methylphenylamino)-5-methylpyrimidin-4-ylamino)benzo[d]oxazol-2(3H)-one] the pIC50 (Homo sapiens, T-cell) was > 6.30.

In the case of `CCN(CC)C1CCN(c2ccc(Nc3ncc(C)c(Nc4ccc5oc(=O)[nH]c5c4)n3)cn2)C1` (stereo not shown) [II-82, 5-(2-(6-(3-(diethylamino)pyrrolidin-1-yl)pyridin-3-ylamino)-5-methylpyrimidin-4-ylamino)benzo[d]oxazol-2(3H)-one], the pIC50 (Homo sapiens, T-cell) was > 6.30.

In the case of `Cc1cnc(Nc2ccc(SC(F)(F)F)cc2)nc1Nc1ccc2oc(=O)[nH]c2c1` [Compound I-367, N2-(4-trifluoromethylthio)phenyl-5-methyl-N4-(2-oxo-2,3-dihydro-1,3-benzoxazol-5-yl)-2,4-pyrimidinediamine], the pIC50 was > 6.30.

Work on `COc1cc(Nc2ncc(C)c(Nc3ccc4oc(=O)n(COP(=O)(O)O)c4c3)n2)cc(C(F)(F)F)c1` [Compound I-357, N2-(3-methoxy-5-trifluoromethyl)phenyl-5-methyl-N4-[3-(phosphonooxy)methyl-2-oxo-2,3-dihydro-1,3-benzoxazol-5-yl]-2,4-pyrimidinediamine] yielded a pIC50 of 5.30 to 6.30.

`Cc1ccc(Nc2ncc(C)c(Nc3ccc4oc(=O)[nH]c4c3)n2)cc1OC(F)F` [Compound I-390, N2-(3-difluoromethoxy-4-methyl)phenyl-5-methyl-N4-(2-oxo-2,3-dihydro-1,3-benzoxazol-5-yl)-2,4-pyrimidinediamine] was tested, and the pIC50 was > 6.30.

With `Cc1cnc(Nc2cc(C(C)N3CCC3)cc(C(F)(F)F)c2)nc1Nc1ccc2oc(=O)[nH]c2c1` (stereo not shown) [Compound I-464, 5-(2-(3-(1-(azetidin-1-yl)ethyl)-5-(trifluoromethyl)phenylamino)-5-methylpyrimidin-4-ylamino)benzo[d]oxazol-2(3H)-one] the pIC50 (Homo sapiens, T-cell) was > 6.30.

In the case of `COc1ccc(Nc2ncc(C)c(Nc3ccc4oc(=O)[nH]c4c3)n2)cc1C#N` [Compound I-373, N2-(3-cyano-4-methoxy)phenyl-5-methyl-N4-(2-oxo-2,3-dihydro-1,3-benzoxazol-5-yl)-2,4-pyrimidinediamine], the pIC50 was > 6.30.

`Cc1cnc(Nc2cc(F)c(F)cc2F)nc1Nc1ccc2oc(=O)[nH]c2c1` [Compound I-481, 5-[5-Methyl-2-(2,4,5-trifluoro-phenylamino)-pyrimidin-4-ylamino]-3H-benzooxazol-2-one] was tested, and the pIC50 (Homo sapiens, T-cell) was > 6.30.

In the case of `Cc1cnc(Nc2ccc(C(C)N3CCOCC3)cc2)nc1Nc1ccc2oc(=O)[nH]c2c1` (stereo not shown) [Compound I-204, 5-(5-methyl-2-(4-(1-morpholinoethyl)phenylamino)pyrimidin-4-ylamino)benzo[d]oxazol-2(3H)-one], the pIC50 (Homo sapiens, T-cell) was > 6.30.

In the case of `COc1ccc(C(F)(F)F)cc1Nc1ncc(C)c(Nc2ccc3oc(=O)[nH]c3c2)n1` [Compound I-498, 5-[2-(2-Methoxy-5-trifluoromethyl-phenylamino)-5-methyl-pyrimidin-4-ylamino]-3H-benzooxazol-2-one], the pIC50 (Homo sapiens, T-cell) was 5.30 to 6.30.

In the case of `CCN(CC)C1CCN(C(=O)c2ccc(Nc3ncc(C)c(Nc4ccc5oc(=O)[nH]c5c4)n3)cc2)C1` (stereo not shown) [Compound I-128, 5-{2-[4-(3-Diethylamino-pyrrolidine-1-carbonyl)-phenylamino]-5-methyl-pyrimidin-4-ylamino}-3H-benzooxazol-2-one], the pIC50 (Homo sapiens, T-cell) was > 6.30.

With `CNC(=O)c1cc(Nc2ncc(C)c(Nc3ccc4oc(=O)[nH]c4c3)n2)ccc1N1CCN(C)CC1` [Compound I-323, 5-methyl-N2-[3-methylaminocarbonyl-4-(4-methylpiperazino)]phenyl-N4-(2-oxo-2,3-dihydro-1,3-benzoxazol-5-yl)-2,4-pyrimidinediamine] the pIC50 was > 6.30.

In the case of `Cn1c(=O)oc2cc(Nc3nc(Nc4cccc(NS(C)(=O)=O)c4)ncc3F)ccc21` [Compound I-61, N2-((3-methylsulfonylamino)phenyl)-N4-(3-methyl-2-oxo-2,3-dihydrobenzo[d]oxazol-6-yl)-5-fluoropyrimidine-2,4-diamine], the pIC50 was > 6.30.

`Cc1cnc(Nc2ccc(N3C[C@@H](C)N[C@@H](C)C3)nc2)nc1Nc1ccc2oc(=O)[nH]c2c1` [II-131, N2-[2-(cis-3,5-dimethylpiperazino)pyridin-5-yl]-5-methyl-N4-(2-oxo-2,3-dihydro-1,3-benzoxazol-5-yl)-2,4-pyrimidinediamine] was tested, and the pIC50 (Homo sapiens, T-cell) was > 6.30.

For `Cc1cnc(Nc2ccc(F)c(NS(C)(=O)=O)c2)nc1Nc1ccc2c(c1)oc(=O)n2C` [Compound I-89, N2-((4-fluoro-3-methylsulfonylamino)phenyl)-N4-(3-methyl-2-oxo-2,3-dihydrobenzo[d]oxazol-6-yl)-5-methylpyrimidine-2,4-diamine], the pIC50 was > 6.30.

`Cc1cnc(Nc2ccc(C#N)cc2)nc1Nc1ccc2oc(=O)[nH]c2c1` [Compound I-27, N4-(benzo[d]oxazol-2(3H)-on-5-yl)-N2-(4-cyanophenyl)-5-methylpyrimidine-2,4-diamine] was tested, and the pIC50 (Homo sapiens, T-cell) was > 6.30.

In the case of `CCN1CC2CN(c3ncc(Nc4ncc(C)c(Nc5ccc6oc(=O)[nH]c6c5)n4)cc3Cl)CC2C1` (stereo not shown) [II-118, N2-[3-chloro-2-(3-ethyl-3,7-diazabicyclo[3.3.0]octan-7-yl)pyridin-5-yl]-5-methyl-N4-(2-oxo-2,3-dihydro-1,3-benzoxazol-5-yl)-2,4-pyrimidinediamine], the pIC50 (Homo sapiens, T-cell) was > 6.30.

In the case of `Cc1ccc(Nc2ncc(C)c(Nc3ccc4oc(=O)[nH]c4c3)n2)cc1F` [Compound I-363, N2-(3-fluoro-4-methyl)phenyl-5-methyl-N4-(2-oxo-2,3-dihydro-1,3-benzoxazol-5-yl)-2,4-pyrimidinediamine], the pIC50 was > 6.30.

With `Cc1cnc(Nc2ccc(S(N)(=O)=O)cc2)nc1Nc1ccc2[nH]c(=O)[nH]c2c1` [Compound I-12, N4-(benzimidazolin-2-on-5-yl)-N2-((4-aminosulfonyl)phenyl)-5-methylpyrimidine-2,4-diamine] the pIC50 was < 5.00.

In the case of `Cc1cnc(Nc2ccc3c(c2)CCNC3=O)nc1Nc1ccc2oc(=O)[nH]c2c1` [IV-15, 6-[5-Methyl-4-(2-oxo-2,3-dihydro-benzooxazol-5-ylamino)-pyrimidin-2-ylamino]-3,4-dihydro-2H-isoquinolin-1-one], the pIC50 (Homo sapiens, T-cell) was > 6.30.

For `COc1ccc(Nc2ncc(C)c(Nc3cc(C)c4oc(=O)[nH]c4c3)n2)cc1C` [Compound I-429, 5-(2-(4-methoxy-3-methylphenylamino)-5-methylpyrimidin-4-ylamino)-7-methylbenzo[d]oxazol-2(3H)-one], the pIC50 (Homo sapiens, T-cell) was > 6.30.
